One may read the Ki as a measure of affinity in units of concentration, obtained from inhibition or displacement. The low end stands for a stronger hold on the target, the high end for a looser hold on the target.

One test addresses Mu-type opioid receptor (Homo sapiens, UniProt P35372). The test can be described thus: Displacement of [3H]DAMGO from human mu opioid receptor expressed in CHO cells by liquid scintillation counting. Type of test: cell-based.
Test [1] deals with Delta-type opioid receptor (Homo sapiens, UniProt P41143). The test can be described thus: Displacement of [3H]DADLE from human delta opioid receptor expressed in CHO cells by liquid scintillation counting. Type of test: cell-based. On the technique in general: In a radioligand displacement assay an active substance lowers the binding of a labelled ligand.
Test [2] deals with Kappa-type opioid receptor (Homo sapiens, UniProt P41145). In words: Displacement of [3H]U69,593 from human kappa opioid receptor expressed in CHO cells by liquid scintillation counting. Type of test: cell-based.
The species entered for test [3] is Homo sapiens. The test can be described thus: Selectivity ratio of Ki for human delta opioid receptor to Ki for human mu opioid receptor.
The species named for test [4] is Homo sapiens. The test can be described thus: Selectivity ratio of Ki for human kappa opioid receptor to Ki for human mu opioid receptor.

Delta-type opioid receptor, sequence (P41143 whole entry): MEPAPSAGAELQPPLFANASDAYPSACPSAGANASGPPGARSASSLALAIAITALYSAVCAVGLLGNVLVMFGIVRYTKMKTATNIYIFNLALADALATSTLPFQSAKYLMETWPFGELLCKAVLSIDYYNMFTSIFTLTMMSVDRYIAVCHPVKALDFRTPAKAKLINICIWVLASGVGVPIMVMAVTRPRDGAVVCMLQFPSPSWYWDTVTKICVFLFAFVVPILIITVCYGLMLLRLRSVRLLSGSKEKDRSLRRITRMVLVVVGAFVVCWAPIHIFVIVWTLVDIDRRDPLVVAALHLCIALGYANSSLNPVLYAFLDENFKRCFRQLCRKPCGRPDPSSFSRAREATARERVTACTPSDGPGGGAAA
Mu-type opioid receptor, sequence (P35372 whole entry): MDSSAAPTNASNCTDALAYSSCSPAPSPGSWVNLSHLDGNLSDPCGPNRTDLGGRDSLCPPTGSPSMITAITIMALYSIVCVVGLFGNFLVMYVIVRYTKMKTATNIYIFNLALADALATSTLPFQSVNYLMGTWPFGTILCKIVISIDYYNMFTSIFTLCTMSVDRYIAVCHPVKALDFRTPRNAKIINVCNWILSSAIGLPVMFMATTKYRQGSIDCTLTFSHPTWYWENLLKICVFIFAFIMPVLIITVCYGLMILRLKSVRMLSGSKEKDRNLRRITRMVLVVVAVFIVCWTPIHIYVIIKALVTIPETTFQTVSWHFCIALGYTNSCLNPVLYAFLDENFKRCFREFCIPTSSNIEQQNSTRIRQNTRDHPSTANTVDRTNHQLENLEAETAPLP
Kappa-type opioid receptor, sequence (P41145 whole entry): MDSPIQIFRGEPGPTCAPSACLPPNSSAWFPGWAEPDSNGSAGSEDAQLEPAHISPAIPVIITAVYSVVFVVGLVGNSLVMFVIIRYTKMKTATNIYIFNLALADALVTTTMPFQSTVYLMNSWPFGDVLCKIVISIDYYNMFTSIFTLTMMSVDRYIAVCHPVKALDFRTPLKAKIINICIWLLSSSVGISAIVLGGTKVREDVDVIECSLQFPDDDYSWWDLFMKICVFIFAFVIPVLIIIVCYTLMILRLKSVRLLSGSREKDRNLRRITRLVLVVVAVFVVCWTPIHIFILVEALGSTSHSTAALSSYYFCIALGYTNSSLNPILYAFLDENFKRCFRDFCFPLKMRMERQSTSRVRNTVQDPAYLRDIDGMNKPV

With `Cc1ccc(S(=O)(=O)O[C@@H]2CC[C@@]3(O)[C@H]4Cc5ccc(O)c6c5[C@@]3(CCN4CC3CC3)[C@H]2O6)cc1`, the Ki stood at 0.79 nM on Mu-type opioid receptor, 5.16 nM in test [1] and 1.66 nM in test [2]. Also, the Ratio Ki turned out to be 6.5 in the test filed under Homo sapiens [3] and 2.1 in the test filed under Homo sapiens [4].

As for `O=C(O[C@@H]1CC[C@@]2(O)[C@H]3Cc4ccc(O)c5c4[C@@]2(CCN3CC2CC2)[C@H]1O5)N(c1ccccc1)c1ccccc1`, the figures for the Ki (on Mu-type opioid receptor; in test [1]; in test [2]) were 0.56 nM, 74.6 nM and 14.7 nM, respectively. The Ratio Ki is 133 in the test filed under Homo sapiens [3] and 26.3 in the test filed under Homo sapiens [4].

As to `CN(C)C(=O)O[C@@H]1CC[C@@]2(O)[C@H]3Cc4ccc(O)c5c4[C@@]2(CCN3CC2CC2)[C@H]1O5`, the Ki worked out at 1.85 nM on Mu-type opioid receptor, 334 nM in test [1] and 28.2 nM in test [2]. Further, the Ratio Ki in the test filed under Homo sapiens [3] is 180; in the test listed under Homo sapiens [4] it was 15.2.

With `CS(=O)(=O)O[C@@H]1CC[C@@]2(O)[C@H]3Cc4ccc(O)c5c4[C@@]2(CCN3CC2CC2)[C@H]1O5`, the Ki on Mu-type opioid receptor was 1.11 nM; in test [1] it was 93.1 nM; in test [2], 6.75 nM. The Ratio Ki in the test listed under Homo sapiens [3] came to 83.8; in the test filed under Homo sapiens [4] it was 6.1.

Source of the values: ChEMBL document CHEMBL1153596, “Design, synthesis, and characterization of 6beta-naltrexol analogs, and their selectivity for in vitro opioid receptor subtypes” (Bioorg Med Chem Lett, 2009).
